Data reported in ChEMBL document CHEMBL5344402, “A multi-target directed ligands strategy for the treatment of Alzheimer's disease: Dimethyl fumarate plus Tranilast modified Dithiocarbate as AChE inhibitor and Nrf2 activator” (Eur J Med Chem, 2022).
The source made the active and inactive calls. The rule behind the calls is not given here.

Experiments:
[1] = in vitro; conditions: PAMPA
[2] = target: Acetylcholinesterase (Electrophorus electricus, UniProt O42275); assay: Inhibition of electric eel AChE using acetylthiocholine iodide as substrate preincubated for 5 mins followed by substrate addition by DTNB reagent based Ellman's method
Sequence of Acetylcholinesterase (Electrophorus electricus, UniProt O42275) (O42275 whole entry): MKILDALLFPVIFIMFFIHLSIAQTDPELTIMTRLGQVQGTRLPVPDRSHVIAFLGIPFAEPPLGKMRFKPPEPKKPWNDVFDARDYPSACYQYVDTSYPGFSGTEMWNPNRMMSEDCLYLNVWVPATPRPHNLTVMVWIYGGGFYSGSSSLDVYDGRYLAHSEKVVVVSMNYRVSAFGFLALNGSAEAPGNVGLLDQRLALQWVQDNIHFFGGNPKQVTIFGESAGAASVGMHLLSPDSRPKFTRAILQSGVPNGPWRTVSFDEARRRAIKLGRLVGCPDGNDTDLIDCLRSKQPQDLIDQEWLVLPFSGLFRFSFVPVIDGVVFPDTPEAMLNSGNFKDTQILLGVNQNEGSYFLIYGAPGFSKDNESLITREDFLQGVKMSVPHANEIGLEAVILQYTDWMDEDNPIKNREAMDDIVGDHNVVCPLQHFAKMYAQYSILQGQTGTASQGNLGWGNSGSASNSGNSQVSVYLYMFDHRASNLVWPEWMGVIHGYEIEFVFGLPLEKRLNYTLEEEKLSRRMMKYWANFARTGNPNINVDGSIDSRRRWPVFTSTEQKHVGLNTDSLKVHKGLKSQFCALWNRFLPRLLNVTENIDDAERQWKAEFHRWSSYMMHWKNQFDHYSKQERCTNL

[3] = target: Cholinesterase (Equus caballus) (UniProt P81908); assay: Inhibition of equine serum BuChE using butyrylthiocholine iodide as substrate at 10 uM preincubated for 5 mins followed by substrate addition by DTNB reagent based Ellman's method relative to control; type: cell-free
Sequence of Cholinesterase (Equus caballus) (P81908 whole entry): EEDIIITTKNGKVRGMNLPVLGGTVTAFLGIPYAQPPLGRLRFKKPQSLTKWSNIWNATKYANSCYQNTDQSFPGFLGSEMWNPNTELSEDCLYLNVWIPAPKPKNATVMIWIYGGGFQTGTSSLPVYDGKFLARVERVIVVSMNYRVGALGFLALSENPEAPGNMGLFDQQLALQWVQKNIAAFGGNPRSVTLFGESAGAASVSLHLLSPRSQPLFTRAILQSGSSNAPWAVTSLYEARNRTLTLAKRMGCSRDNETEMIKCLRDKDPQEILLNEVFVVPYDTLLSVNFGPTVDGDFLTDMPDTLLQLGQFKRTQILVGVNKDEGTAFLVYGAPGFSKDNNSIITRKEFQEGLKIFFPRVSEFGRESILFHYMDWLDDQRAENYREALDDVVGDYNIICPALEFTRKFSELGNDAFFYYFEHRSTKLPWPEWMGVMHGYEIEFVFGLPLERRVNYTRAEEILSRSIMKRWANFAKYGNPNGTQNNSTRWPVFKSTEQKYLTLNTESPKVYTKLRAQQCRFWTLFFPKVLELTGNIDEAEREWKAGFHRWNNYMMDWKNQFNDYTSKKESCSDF

[4] = target: Acetylcholinesterase (Homo sapiens, UniProt P22303); assay: Inhibition of human AChE using acetylthiocholine iodide as substrate preincubated for 5 mins followed by substrate addition by DTNB reagent based Ellman's method
Sequence of Acetylcholinesterase (Homo sapiens, UniProt P22303) (P22303 whole entry): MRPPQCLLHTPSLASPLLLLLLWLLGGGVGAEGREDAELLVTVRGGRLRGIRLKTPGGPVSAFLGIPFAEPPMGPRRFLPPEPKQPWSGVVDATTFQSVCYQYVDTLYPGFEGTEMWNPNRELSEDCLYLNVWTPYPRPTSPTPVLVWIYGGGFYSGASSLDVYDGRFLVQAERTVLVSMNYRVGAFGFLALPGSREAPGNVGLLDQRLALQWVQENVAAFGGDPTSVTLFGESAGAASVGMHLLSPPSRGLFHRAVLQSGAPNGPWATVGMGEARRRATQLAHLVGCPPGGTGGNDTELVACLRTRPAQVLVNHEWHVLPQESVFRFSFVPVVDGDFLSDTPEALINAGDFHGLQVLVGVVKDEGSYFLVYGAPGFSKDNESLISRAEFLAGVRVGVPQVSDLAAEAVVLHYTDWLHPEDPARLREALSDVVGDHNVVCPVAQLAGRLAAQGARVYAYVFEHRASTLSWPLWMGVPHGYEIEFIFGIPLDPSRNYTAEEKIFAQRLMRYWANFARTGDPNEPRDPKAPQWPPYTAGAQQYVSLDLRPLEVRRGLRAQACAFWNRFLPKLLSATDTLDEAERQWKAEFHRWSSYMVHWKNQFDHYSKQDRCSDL

[5] = target: Cholinesterase (Homo sapiens) (UniProt P06276); assay: Inhibition of human BuChE using butyrylthiocholine iodide as substrate at 10 uM preincubated for 5 mins followed by substrate addition by DTNB reagent based Ellman's method relative to control
Sequence of Cholinesterase (Homo sapiens) (P06276 whole entry): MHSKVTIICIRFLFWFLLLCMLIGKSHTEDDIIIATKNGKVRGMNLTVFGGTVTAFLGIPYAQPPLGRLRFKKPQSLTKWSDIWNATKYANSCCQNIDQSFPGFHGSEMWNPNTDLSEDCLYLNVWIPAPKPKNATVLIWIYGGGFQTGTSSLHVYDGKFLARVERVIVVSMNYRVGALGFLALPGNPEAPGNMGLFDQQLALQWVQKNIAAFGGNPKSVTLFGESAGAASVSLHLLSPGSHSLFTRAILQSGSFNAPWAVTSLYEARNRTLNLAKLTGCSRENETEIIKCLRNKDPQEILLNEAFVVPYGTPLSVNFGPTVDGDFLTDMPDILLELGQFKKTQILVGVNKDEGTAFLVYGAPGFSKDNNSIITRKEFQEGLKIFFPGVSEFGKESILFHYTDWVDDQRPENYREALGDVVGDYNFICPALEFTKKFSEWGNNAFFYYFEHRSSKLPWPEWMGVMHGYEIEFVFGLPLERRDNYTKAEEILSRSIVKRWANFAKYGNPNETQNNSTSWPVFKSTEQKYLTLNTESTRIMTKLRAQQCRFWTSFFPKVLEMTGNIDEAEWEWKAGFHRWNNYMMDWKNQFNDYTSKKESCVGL

[6] = Drug degradation in serum (unknown origin) incubated for 12 hrs by HPLC analysis; type: ADME, cell-free; conditions: read-out: Drug degradation
[7] = system: BV-2; assay: Anti-neuroinflammatory activity in mouse BV-2 cells assessed as reduction in LPS-induced iNOS expression at 1 to 7 uM incubated for 6 hrs followed by LPS addition measured after 24 hrs by Western blotting analysis; type: functional, cell-based; conditions: dose 1-7 µM, time 30.0 hrs
[8] = target: T1, Nuclear factor erythroid 2-related factor 2 (Mus musculus) (UniProt Q60795); assay: Activation of NRF2 in mouse BV-2 cells assessed as increase in NQO1 protein expression incubated for 8 hrs by Western blotting analysis; type: cell-based; conditions: filed as activator
T1 sequence (whole entry): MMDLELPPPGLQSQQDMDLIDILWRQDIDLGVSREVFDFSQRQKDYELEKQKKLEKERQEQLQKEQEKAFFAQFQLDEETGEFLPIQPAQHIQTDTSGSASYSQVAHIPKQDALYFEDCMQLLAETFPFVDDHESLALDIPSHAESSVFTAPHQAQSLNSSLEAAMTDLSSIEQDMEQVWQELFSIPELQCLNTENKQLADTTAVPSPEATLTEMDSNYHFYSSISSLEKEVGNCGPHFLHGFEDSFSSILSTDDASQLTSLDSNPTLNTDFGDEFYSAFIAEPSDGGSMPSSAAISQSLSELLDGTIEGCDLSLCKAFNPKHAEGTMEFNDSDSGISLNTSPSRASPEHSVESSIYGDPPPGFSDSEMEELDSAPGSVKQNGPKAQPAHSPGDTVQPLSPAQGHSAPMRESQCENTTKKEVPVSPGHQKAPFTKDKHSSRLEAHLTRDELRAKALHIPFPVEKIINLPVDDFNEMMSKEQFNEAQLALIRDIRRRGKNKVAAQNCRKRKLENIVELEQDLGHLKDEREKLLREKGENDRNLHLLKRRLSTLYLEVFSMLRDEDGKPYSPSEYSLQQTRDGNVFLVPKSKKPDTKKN

[9] = Acute toxicity in Kunming mouse assessed as behavioral abnormalities at 625 to 2500 mg/kg,po administration for 4 hrs; type: organism-based; conditions: in vivo, dose 625-2500 mg/kg
[10] = system: BV-2; assay: Anti-neuroinflammatory activity in mouse BV-2 cells assessed as reduction in LPS-induced NO production incubated for 6 hrs followed by LPS addition measured after 24 hrs by Griess reagent based assay; type: functional, cell-based; conditions: time 30.0 hrs
[11] = Stability of the compound in serum (unknown origin) assessed as drug degradation incubated for 8 hrs by HPLC analysis; type: ADME, cell-free
[12] = system: BV-2; assay: Activation of NRF2/ARE in mouse BV-2 cells assessed as upregulation of NRF2 expression incubated for 8 hrs by Western blotting analysis; type: cell-based; conditions: filed as activator
[13] = system: BV-2; assay: Cytoprotective activity against H2O2-induced toxicity in mouse BV-2 cells assessed as decrease in ROS production incubated for 6 hrs by DCFH-DA staining based inverted fluorescence microscopic analysis; type: functional, cell-based
[14] = system: BV-2; assay: Cytoprotective activity against H2O2-induced toxicity in mouse BV-2 cells assessed as increase in cell viability incubated for 6 hrs by CCK-8 assay; type: functional, cell-based
[15] = system: BV-2; assay: Cytotoxicity against mouse BV-2 cells upto 10 uM incubated for 24 hrs by CCK-8 assay; type: toxicity, cell-based; conditions: bv-2, 24 h
[16] = system: BV-2; assay: Anti-neuroinflammatory activity in mouse BV-2 cells assessed as reduction in LPS-induced IL-6 production incubated for 6 hrs followed by LPS addition measured after 24 hrs by ELISA; type: functional, cell-based; conditions: time 30.0 hrs
[17] = Acute toxicity in Kunming mouse assessed as kidney pathological change at 625 to 2500 mg/kg,po administration for 14 days by Hematoxylin and eosin based staining analysis; type: organism-based; conditions: in vivo, 336 h, dose 625-2500 mg/kg, time 14 day
[18] = Acute toxicity in Kunming mouse assessed as lung pathological change at 625 to 2500 mg/kg,po administration for 14 days by Hematoxylin and eosin based staining analysis; type: organism-based; conditions: in vivo, 336 h, dose 625-2500 mg/kg, time 14 day
[19] = target: T1, Nuclear factor erythroid 2-related factor 2 (Mus musculus); assay: Activation of NRF2 in mouse BV-2 cells assessed as increase in NQO1 protein expression at 7 uM incubated for 3 to 9 hrs by Western blotting analysis; type: cell-based; conditions: filed as activator, time 3-9 hrs
[20] = target: T1, Nuclear factor erythroid 2-related factor 2 (Mus musculus); assay: Activation of NRF2 in mouse BV-2 cells assessed as increase in GPX4 protein expression at 7 uM incubated for 3 to 9 hrs by Western blotting analysis; type: cell-based; conditions: filed as activator, time 3-9 hrs
[21] = system: BV-2; assay: Activation of NRF2/ARE in mouse BV-2 cells assessed as upregulation of nuclear NRF2 expression at 7 uM incubated for 4 hrs by Western blotting analysis; type: cell-based; conditions: filed as activator
[22] = target: T1, Nuclear factor erythroid 2-related factor 2 (Mus musculus); assay: Activation of NRF2 in mouse BV-2 cells assessed as increase in HO-1 protein expression incubated for 8 hrs by Western blotting analysis; type: cell-based; conditions: filed as activator
[23] = system: BV-2; assay: Anti-neuroinflammatory activity in mouse BV-2 cells assessed as reduction in LPS-induced COX-2 expression at 1 to 7 uM incubated for 6 hrs followed by LPS addition measured after 24 hrs by Western blotting analysis; type: functional, cell-based; conditions: dose 1-7 µM, time 30.0 hrs
[24] = system: BV-2; assay: Activation of NRF2/ARE in mouse BV-2 cells assessed as upregulation of NRF2 expression at 7 uM by Western blotting analysis; type: cell-based; conditions: filed as activator, TDE = time-dependent effect
[25] = system: Mus musculus; assay: Antialzheimer activity in scopolamine-induced cognitive impairment Kunming mouse model assessed as decrease in number of latency error at po administration by step-down assay; type: functional, organism-based
[26] = Acute toxicity in Kunming mouse assessed as change in body weight at 625 to 2500 mg/kg,po administration for 14 days; type: organism-based; conditions: in vivo, 336 h, dose 625-2500 mg/kg, time 14 day
[27] = target: T1, Nuclear factor erythroid 2-related factor 2 (Mus musculus); assay: Activation of NRF2 in mouse BV-2 cells assessed as increase in GPX4 protein expression incubated for 8 hrs by Western blotting analysis; type: cell-based; conditions: filed as activator
[28] = system: BV-2; assay: Anti-neuroinflammatory activity in mouse BV-2 cells assessed as reduction in LPS-induced TNF-alpha production incubated for 6 hrs followed by LPS addition measured after 24 hrs by ELISA; type: functional, cell-based; conditions: time 30.0 hrs
[29] = system: Mus musculus; assay: Antialzheimer activity in scopolamine-induced cognitive impairment Kunming mouse model assessed as increase in latency at po administration by step-down assay; type: functional, organism-based
[30] = target: T1, Nuclear factor erythroid 2-related factor 2 (Mus musculus); assay: Activation of NRF2 in mouse BV-2 cells assessed as increase in HO-1 protein expression at 7 uM incubated for 3 to 9 hrs by Western blotting analysis; type: cell-based; conditions: filed as activator, time 3-9 hrs
[31] = system: Mus musculus; assay: Antialzheimer activity in scopolamine-induced cognitive impairment Kunming mouse model assessed as increase in latency at 15 mg/kg,po administration by step-down assay; type: functional, organism-based
[32] = Acute toxicity in Kunming mouse assessed as heart pathological change at 625 to 2500 mg/kg,po administration for 14 days by Hematoxylin and eosin based staining analysis; type: organism-based; conditions: in vivo, 336 h, dose 625-2500 mg/kg, time 14 day
[33] = target: T1, Nuclear factor erythroid 2-related factor 2 (Mus musculus); assay: Activation of NRF2 in mouse BV-2 cells assessed as increase in HO-1 protein expression at 7 uM by Western blotting analysis; type: cell-based; conditions: filed as activator, TDE = time-dependent effect
[34] = target: T1, Nuclear factor erythroid 2-related factor 2 (Mus musculus); assay: Activation of NRF2 in mouse BV-2 cells assessed as increase in GPX4 protein expression at 7 uM by Western blotting analysis; type: cell-based; conditions: filed as activator, TDE = time-dependent effect
[35] = Acute toxicity in Kunming mouse assessed as liver pathological change at 625 to 2500 mg/kg,po administration for 14 days by Hematoxylin and eosin based staining analysis; type: organism-based; conditions: in vivo, 336 h, dose 625-2500 mg/kg, time 14 day
[36] = system: Mus musculus; assay: Antialzheimer activity in scopolamine-induced cognitive impairment Kunming mouse model assessed as increase in latency at 7.5 mg/kg,po administration by step-down assay; type: functional, organism-based
[37] = system: BV-2; assay: Activation of NRF2/ARE in mouse BV-2 cells assessed as upregulation of cytosolic NRF2 expression at 7 uM incubated for 10 hrs by Western blotting analysis; type: cell-based
[38] = target: T1, Nuclear factor erythroid 2-related factor 2 (Mus musculus); assay: Activation of NRF2 in mouse BV-2 cells assessed as increase in NQO1 protein expression at 7 uM by Western blotting analysis; type: cell-based; conditions: filed as activator, TDE = time-dependent effect
[39] = Acute toxicity in Kunming mouse assessed as brain pathological change at 625 to 2500 mg/kg,po administration for 14 days by Hematoxylin and eosin based staining analysis; type: organism-based; conditions: in vivo, 336 h, dose 625-2500 mg/kg, time 14 day

Compound: COC(=O)/C=C/C(=O)Nc1cccc(OCCSC(=S)N2CCCCC2)c1
- Papp at 18 h [1]: 21.3 ×10⁻⁶ cm/s
- IC50 [2]: 2560 nM
- inhibition [3]: 12.8%
- IC50 [4]: 1390 nM
- inhibition [5]: 6.83%

Compound: COC(=O)/C=C/C(=O)Nc1cccc(OCCCCSC(=S)N2CCCCC2C)c1 (stereo not given)
- metabolised at 12 h [6]: 50%
- Papp at 18 h [1]: 17.9 ×10⁻⁶ cm/s
- Activity [7]: Active
- IC50 [2]: 88 nM
- Activity [8]: Dose-Dependent Effect
- Activity [9]: Non-Toxic
- Activity [10]: Dose-Dependent Effect
- Stability [11]: Unstable
- Activity [12]: Dose-Dependent Effect
- Activity [13]: Dose-Dependent Effect
- Activity [14]: Dose-Dependent Effect
- Activity [15]: Non-Toxic
- Activity [16]: Dose-Dependent Effect
- Activity [17]: Non-Toxic
- Activity [18]: Non-Toxic
- inhibition [3]: 7.5%
- Activity [19]: Active
- Activity [20]: Active
- Activity [21]: Active
- Activity [22]: Dose-Dependent Effect
- Activity [23]: Active
- Activity [24]: Tde
- Activity [25]: Dose-Dependent Effect
- Activity [26]: Non-Toxic
- Activity [27]: Dose-Dependent Effect
- Activity [28]: Dose-Dependent Effect
- IC50 [4]: 53 nM
- Activity [29]: Dose-Dependent Effect
- Activity [30]: Active
- Activity [31]: Active
- Activity [32]: Non-Toxic
- Activity [33]: Tde
- Activity [34]: Tde
- inhibition [5]: < 5%
- Activity [35]: Non-Toxic
- Activity [36]: inactive
- Activity [37]: inactive
- Activity [38]: Tde
- Activity [39]: Non-Toxic

Compound: COC(=O)/C=C/C(=O)Nc1cccc(OCCCSC(=S)N2CCCCC2)c1
- Papp at 18 h [1]: 13 ×10⁻⁶ cm/s
- IC50 [2]: 2380 nM
- inhibition [3]: 13.2%
- IC50 [4]: 1980 nM
- inhibition [5]: 7.06%

Compound: COC(=O)/C=C/C(=O)Nc1cccc(OCCCCSC(=S)N2CCCCC2)c1
- Papp at 18 h [1]: 15.5 ×10⁻⁶ cm/s
- IC50 [2]: 370 nM
- inhibition [3]: < 5%
- IC50 [4]: 210 nM
- inhibition [5]: < 5%

Compound: CCN(CC)C(=S)SCCCCOc1cccc(NC(=O)/C=C/C(=O)OC)c1
- IC50 [2]: 11300 nM
- inhibition [3]: > 5%

Compound: COC(=O)/C=C/C(=O)Nc1cccc(OCCCCSC(=S)N2CCCC2)c1
- Papp at 18 h [1]: 10.4 ×10⁻⁶ cm/s
- IC50 [2]: 8140 nM
- inhibition [3]: 8.8%
- IC50 [4]: 6040 nM
- inhibition [5]: < 5%

Compound: COC(=O)/C=C/C(=O)Nc1cccc(OCCCCSC(=S)N2CCN(C)CC2)c1
- IC50 [2]: 91600 nM
- inhibition [3]: > 5%

Compound: COC(=O)/C=C/C(=O)Nc1cccc(OCCCCSC(=S)N2CCC(N3CCCCC3)CC2)c1
- IC50 [2]: 12700 nM
- inhibition [3]: 5.6%
